Reference: patent US10472607B2, “Culture medium and method for inducing differentiation of pluripotent stem cells into neuroepithelial cells” (National Chung Hsing University, priority 2011, dated 2019)

System: TW1 hESCs
Test: Comparison of additive groups: morphology and Oct4/Nestin immunofluorescence
Assay type: cell-based, human
Details: compared to group 3 (BIO + SB431542)
Text: The TW1 hESCs were divided into four groups according to the additives at culture day 3. The detail of the above steps refers to the examples 1 to 3.
Referring to the methods in examples 5 and 6, the protein expressions of Oct4 and Nestin in the each groups and the results were examined and shown in FIG. 9.

Q: With fibroblast growth factor-2 [FGF2] as the substance, how does the “compaction and neural rosettes formation” value read?
A: further enhanced
